According to patent US9210928B2, “Plant development control composition” (Syngenta Crop Protection, LLC, priority 2008, dated 2015):

Tested on: excised Arabidopsis nodes
Experiment: Axillary bud outgrowth assay in Arabidopsis stem sections
Assay type: in vivo
Conditions: 100 μM inhibitor, 1 μM NAA; Col-0; FIG. 5
Method: Axillary bud outgrowth assay in Arabidopsis stein sections—The assays were performed essentially as described (40) with the following modifications. Small Petri dishes (50 mm diameter, 20 mm depth) were filled with 10 ml of ATS (39) supplemented with 1% agar and 1% sucrose. Inhibitors and α-naphthalene acetic acid (NAA) were added to the agar before pouring to give 100 μM and 1 μM, respectively. Thus, when the central strip was cut out of the agar, both the apical and basal media contained both NAA and inhibitor. Any nodes in which the apical end had curled out of the media or which bud length was less than 2 mm at the end of the experiment were discounted. Measurement of the shoot length was performed every 24 hours. For each assay a logistic curve was fitted using Genstat (10th edition, VSN international) with the fitcurve directive and the lag phase was calculated by extrapolating the linear part of the curve and the initial plateau (see supplementary methods). The x value of where these two lines intersected represented the lag phase.
A logistic curve, y=A+C/(1+e^−B(t−m)), was fitted to the data for each shoot using GenStat (10th edition). The lag phase was then calculated using the equation m−(2/B) which effectively gave the t value (time) of the intercept of the two extrapolated lines from the linear part of the curve and the initial plateau.
Stimulation of shoot branching in Arabidopsis stem sections by application of inhibitor—Auxin inhibits the outgrowth of axillary buds in wild-type Arabidopsis plants. In the AtCCD7 and AtCCD8 null mutants (max3 and max4, respectively) the response to auxin is reduced, presumably due to a block in formation of an apocarotenoid hormone (recently shown (17,18) to be strigolactone or a related compound) that suppresses branching (19), and axillary buds extend earlier, leading to formation of side branches. An in vitro assay was previously developed in which the growth of axillary buds from isolated sections of Arabidopsis stem was used to assess max mutants (40). […]

SMILES	effect on timing of bud outgrowth (in words)
COc1ccc(C(=O)N(O)Cc2ccccc2)cc1 [Compound F1, N-benzyl-4-methoxybenzoyl hydroxamic acid]	relatively small activity
COc1ccc(C(=O)N(O)Cc2ccc(F)cc2)cc1 [Compound F2, N-(4-fluorobenzyl)-4-methoxybenzoyl hydroxamic acid]	relatively small activity
